Results published in ChEMBL document CHEMBL1201862, “PubChem BioAssay data set” (2004).
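Values below derive from 48-hour exposures of cells grown in 96-well plates, with endpoints linearly interpolated between the two concentrations bracketing the appropriate inhibition level. Abbreviation: GI50, concentration required for 50% inhibition of growth.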 The source made the active and inactive calls. No stated cut-off is given here; in the data, active = GI50 up to about 1.1 µM and inactive = higher.

Legend:
Assay in all cases: inhibition of tumour cell growth, NCI panel, 48 h
ACHN = tested on: ACHN
HL-60 = tested on: HL-60
RPMI-8226 = tested on: RPMI-8226
U-251 = tested on: U-251
SK-OV-3 = tested on: SK-OV-3
A549 = tested on: A549
EKVX = tested on: EKVX
M14 = tested on: M14
SW-620 = tested on: SW-620
CCRF-CEM = tested on: CCRF-CEM
COLO 205 = tested on: COLO 205
NCI-H460 = tested on: NCI-H460
SF-539 = tested on: SF-539
SR = tested on: SR
OVCAR-4 = tested on: OVCAR-4
A498 = tested on: A498

O=C(CO[N+](=O)[O-])OC/C=C/c1ccccc1
GI50 (ACHN): > 100 µM (inactive)
GI50 (HL-60): 22.1 µM (inactive)
GI50 (RPMI-8226): > 100 µM (inactive)
GI50 (U-251): > 100 µM (inactive)
GI50 (SK-OV-3): > 100 µM (inactive)
GI50 (A549): > 100 µM (inactive)
GI50 (EKVX): > 100 µM (inactive)
GI50 (M14): > 100 µM (inactive)
GI50 (SW-620): > 100 µM (inactive)
GI50 (CCRF-CEM): > 100 µM (inactive)
GI50 (COLO 205): > 100 µM (inactive)
GI50 (NCI-H460): > 100 µM (inactive)
GI50 (SF-539): > 100 µM (inactive)
GI50 (SR): > 100 µM (inactive)

CC1CC[C@@]23CCC4(C)[C@@](C=CC5[C@@]6(C)CCC(=O)C(C)(C)C6CC[C@]54C)(OC2=O)[C@@H]3[C@H]1C (stereo partly specified)
GI50 (ACHN): 12 µM (inactive)
GI50 (HL-60): 1.6 µM (inactive)
GI50 (OVCAR-4): 29.4 µM (inactive)
GI50 (U-251): 17.3 µM (inactive)
GI50 (SK-OV-3): 27.9 µM (inactive)
GI50 (A549): 6.93 µM (inactive)
GI50 (EKVX): 32.1 µM (inactive)
GI50 (M14): 21.7 µM (inactive)
GI50 (SW-620): 30.8 µM (inactive)
GI50 (CCRF-CEM): 5.35 µM (inactive)
GI50 (COLO 205): 13.7 µM (inactive)
GI50 (A498): 20.6 µM (inactive)
GI50 (NCI-H460): 13.2 µM (inactive)
GI50 (SF-539): 24.5 µM (inactive)
GI50 (SR): 6.08 µM (inactive)

Cn1c(=O)nc2n(-c3cccc(F)c3)c3ccccc3nc-2c1=O
GI50 (ACHN): 8 µM (inactive)
GI50 (RPMI-8226): 20.5 µM (inactive)
GI50 (OVCAR-4): 14.7 µM (inactive)
GI50 (U-251): 19.3 µM (inactive)
GI50 (SK-OV-3): > 100 µM (inactive)
GI50 (A549): 19 µM (inactive)
GI50 (EKVX): 13.8 µM (inactive)
GI50 (M14): 18.7 µM (inactive)
GI50 (SW-620): 11.1 µM (inactive)
GI50 (CCRF-CEM): 19.4 µM (inactive)
GI50 (COLO 205): 6.11 µM (inactive)
GI50 (A498): 39.9 µM (inactive)
GI50 (NCI-H460): 11.6 µM (inactive)
GI50 (SF-539): 25.4 µM (inactive)

CC1(C)CCOC(Sc2ccccc2)C1 (stereo unspecified)
GI50 (ACHN): 63.7 µM (inactive)
GI50 (HL-60): 10.5 µM (inactive)
GI50 (RPMI-8226): 18.3 µM (inactive)
GI50 (OVCAR-4): 52.8 µM (inactive)
GI50 (U-251): 18.7 µM (inactive)
GI50 (SK-OV-3): > 100 µM (inactive)
GI50 (A549): 24.3 µM (inactive)
GI50 (EKVX): > 100 µM (inactive)
GI50 (M14): 53.2 µM (inactive)
GI50 (SW-620): > 100 µM (inactive)
GI50 (CCRF-CEM): 32.4 µM (inactive)
GI50 (COLO 205): 52.2 µM (inactive)
GI50 (A498): 67.3 µM (inactive)
GI50 (NCI-H460): 84.9 µM (inactive)
GI50 (SR): 39.6 µM (inactive)

CC(=O)NC(C=O)C(O[C@H](C)C(=O)NC(C)C(=O)NC(CCC(N)=O)C(=O)OCc1ccccc1)C(O)C(O)COC(=O)CCNc1c2ccccc2nc2cccc([N+](=O)[O-])c12 (stereo partly specified)
GI50 (ACHN): 2.94 µM (inactive)
GI50 (HL-60): 11.5 µM (inactive)
GI50 (RPMI-8226): 1.63 µM (inactive)
GI50 (OVCAR-4): 12.2 µM (inactive)
GI50 (U-251): 2.56 µM (inactive)
GI50 (A549): 2.23 µM (inactive)
GI50 (EKVX): 5.7 µM (inactive)
GI50 (M14): 1.9 µM (inactive)
GI50 (SW-620): 1.99 µM (inactive)
GI50 (CCRF-CEM): 1.94 µM (inactive)
GI50 (COLO 205): 1.29 µM (inactive)
GI50 (A498): > 100 µM (inactive)
GI50 (NCI-H460): 1.73 µM (inactive)
GI50 (SF-539): 6.12 µM (inactive)
GI50 (SR): 0.637 µM (active)

CN1Cc2c(nc(-c3ccc(Br)cc3)c[n+]2[O-])N(C)C1
GI50 (ACHN): > 100 µM (inactive)
GI50 (HL-60): > 100 µM (inactive)
GI50 (OVCAR-4): > 100 µM (inactive)
GI50 (U-251): > 100 µM (inactive)
GI50 (SK-OV-3): > 100 µM (inactive)
GI50 (A549): > 100 µM (inactive)
GI50 (EKVX): > 100 µM (inactive)
GI50 (M14): > 100 µM (inactive)
GI50 (SW-620): > 100 µM (inactive)
GI50 (CCRF-CEM): > 100 µM (inactive)
GI50 (COLO 205): > 100 µM (inactive)
GI50 (A498): > 100 µM (inactive)
GI50 (NCI-H460): > 100 µM (inactive)
GI50 (SF-539): > 100 µM (inactive)
GI50 (SR): > 100 µM (inactive)

COc1ccc(CCC2c3cc(OC)c(OC)cc3CCN2C)cc1OC (stereo unspecified)
GI50 (ACHN): > 100 µM (inactive)
GI50 (HL-60): > 100 µM (inactive)
GI50 (RPMI-8226): > 100 µM (inactive)
GI50 (OVCAR-4): > 100 µM (inactive)
GI50 (U-251): > 100 µM (inactive)
GI50 (SK-OV-3): > 100 µM (inactive)
GI50 (A549): > 100 µM (inactive)
GI50 (EKVX): > 100 µM (inactive)
GI50 (M14): > 100 µM (inactive)
GI50 (SW-620): > 100 µM (inactive)
GI50 (CCRF-CEM): > 100 µM (inactive)
GI50 (COLO 205): > 100 µM (inactive)
GI50 (NCI-H460): > 100 µM (inactive)
GI50 (SF-539): > 100 µM (inactive)
GI50 (SR): > 100 µM (inactive)

COc1cccc(/C=C/c2cc(OC)c(OC)c(OC)c2)c1
GI50 (ACHN): 87.5 µM (inactive)
GI50 (RPMI-8226): 34 µM (inactive)
GI50 (U-251): 36.5 µM (inactive)
GI50 (SK-OV-3): 38.2 µM (inactive)
GI50 (A549): 42.3 µM (inactive)
GI50 (EKVX): 36.2 µM (inactive)
GI50 (M14): 23.8 µM (inactive)
GI50 (SW-620): 50.4 µM (inactive)
GI50 (CCRF-CEM): 33.7 µM (inactive)
GI50 (COLO 205): 34.4 µM (inactive)
GI50 (A498): 57 µM (inactive)
GI50 (NCI-H460): 43.4 µM (inactive)
GI50 (SF-539): 24.4 µM (inactive)
GI50 (SR): 35.1 µM (inactive)

CCN(CC)C(=S)S [DITIOCARB SODIUM]
GI50 (ACHN): 53.7 µM (inactive)
GI50 (HL-60): 0.294 µM (active)
GI50 (RPMI-8226): 0.528 µM (active)
GI50 (U-251): 0.299 µM (active)
GI50 (SK-OV-3): > 100 µM (inactive)
GI50 (EKVX): > 100 µM (inactive)
GI50 (M14): 41.7 µM (inactive)
GI50 (SW-620): 0.117 µM (active)
GI50 (CCRF-CEM): 0.0443 µM (active)
GI50 (COLO 205): 0.0713 µM (active)
GI50 (NCI-H460): 0.373 µM (active)
GI50 (SF-539): > 60.4 µM (inactive)
GI50 (SR): 0.0354 µM (active)

Cc1ccc(NC(=O)CC2SC(=N)NC2=O)cc1C (stereo unspecified)
GI50 (ACHN): > 100 µM (inactive)
GI50 (HL-60): > 100 µM (inactive)
GI50 (RPMI-8226): > 100 µM (inactive)
GI50 (OVCAR-4): > 100 µM (inactive)
GI50 (U-251): 64.3 µM (inactive)
GI50 (SK-OV-3): > 100 µM (inactive)
GI50 (A549): > 100 µM (inactive)
GI50 (M14): > 100 µM (inactive)
GI50 (SW-620): > 100 µM (inactive)
GI50 (COLO 205): > 100 µM (inactive)
GI50 (NCI-H460): > 100 µM (inactive)
GI50 (SF-539): > 100 µM (inactive)
GI50 (SR): > 100 µM (inactive)

Brc1ccc(N2C[N+](c3ccc(Br)cc3)=NC(c3ccccc3)=N2)cc1
GI50 (ACHN): 13.6 µM (inactive)
GI50 (HL-60): 17.1 µM (inactive)
GI50 (RPMI-8226): 9.35 µM (inactive)
GI50 (OVCAR-4): 19.5 µM (inactive)
GI50 (U-251): 19.1 µM (inactive)
GI50 (SK-OV-3): 19.6 µM (inactive)
GI50 (A549): 18.6 µM (inactive)
GI50 (EKVX): 16.7 µM (inactive)
GI50 (M14): 13.4 µM (inactive)
GI50 (SW-620): 20.9 µM (inactive)
GI50 (COLO 205): 19.1 µM (inactive)
GI50 (A498): 18.3 µM (inactive)
GI50 (NCI-H460): 13.6 µM (inactive)
GI50 (SF-539): 15.8 µM (inactive)

COCC(O)Cn1ccnc1[N+](=O)[O-] (stereo unspecified) [MISONIDAZOLE]
GI50 (ACHN): > 100 µM (inactive)
GI50 (HL-60): > 100 µM (inactive)
GI50 (RPMI-8226): > 100 µM (inactive)
GI50 (U-251): > 100 µM (inactive)
GI50 (SK-OV-3): > 100 µM (inactive)
GI50 (A549): > 100 µM (inactive)
GI50 (EKVX): > 100 µM (inactive)
GI50 (M14): > 100 µM (inactive)
GI50 (SW-620): > 100 µM (inactive)
GI50 (CCRF-CEM): > 100 µM (inactive)
GI50 (COLO 205): > 100 µM (inactive)
GI50 (NCI-H460): > 100 µM (inactive)
GI50 (SF-539): > 100 µM (inactive)
GI50 (SR): > 100 µM (inactive)

CC(/C(=N\Nc1ccccc1)c1ccc(O)cc1)C1C(=O)Oc2ccccc21 (stereo unspecified)
GI50 (ACHN): > 100 µM (inactive)
GI50 (HL-60): > 100 µM (inactive)
GI50 (RPMI-8226): > 100 µM (inactive)
GI50 (OVCAR-4): > 100 µM (inactive)
GI50 (U-251): > 100 µM (inactive)
GI50 (A549): > 100 µM (inactive)
GI50 (EKVX): > 100 µM (inactive)
GI50 (M14): > 100 µM (inactive)
GI50 (SW-620): > 100 µM (inactive)
GI50 (CCRF-CEM): > 100 µM (inactive)
GI50 (COLO 205): > 100 µM (inactive)
GI50 (A498): > 100 µM (inactive)
GI50 (NCI-H460): > 100 µM (inactive)
GI50 (SF-539): > 100 µM (inactive)
GI50 (SR): > 100 µM (inactive)
